Like-named read-outs stand apart in the source and are kept apart here.
Assays:
[1] = MTS cytotoxicity assay; format: cell-based; settings: human, HepG2 cells, triplicates, logistic regression
Source text: (§1) One key requirement of antifungal medicines is selective inhibition of the pathogen over the mammalian host. To explore potential undesired activity of NGx04 against mammalian cells we used the Cancer Cell Line Encyclopedia CCLE, a collection of 512 human cancer cell lines (broadinstitute.org/ccle). Dose-response curves for NGx04 were generated in a proliferation assay and IC50 values determined. […] Since HepG2 cells are known to be a suitable tool to profile toxicity of compounds [40], we used this liver-derived line to assess cytotoxicity of NGx04. […] 16 of 21 amino acid residues within a 5 Å radius from any atom of the docked Ngx04 ligand were not conserved between the two proteins. Critical differences in the active site of the human protein are the residues F178, C128, I151 and L186 (corresponding to S201, Y151, T175 and M209 in yeast) which form a smaller and more hydrophobic pocket compared to the yeast protein (Fig 4C). […]
(§2) Fig 4 Fungal selectivity. […] A) Dose-response curves for NGx04 were generated in growth inhibition assay and IC50 values determined in duplicates. […]
(§3) Profiling across the Cancer Cell Line Encyclopedia was performed as described previously. MTS toxicity was determined using a CellTiter 96 AQueous One Solution Cell Proliferation Assay kit from Peomega.

[2] = test system: 512 human cancer cell lines; experiment: Cancer Cell Line Encyclopedia proliferation assay; format: cell-based
Source text: as §1, §2, §3

[3] = test system: S. cerevisiae; experiment: High-throughput screen of compound archive against S. cerevisiae; format: cell-based; settings: Saccharomyces cerevisiae; validated hit of high-throughput screen
[4] = test system: wild type yeast carrying plasmid SEC14 variants; experiment: Growth inhibition titration of yeast re-transformed with plasmids coding for SEC14 variants; settings: Saccharomyces cerevisiae, 18 h
Method: A plasmid containing the wild type copy of SEC14 was used as control to exclude resistance due to SEC14 gene copy-number effects.
B) The plasmids coding for various SEC14 proteins were re-transformed into a fresh wild type yeast strain and serial dilutions of the cultures spotted on either 150 μM of NGx04 or DMSO control, incubated for 3 days at 30°C and scored for growth. C) The strains were grown for 24 h in the presence of increasing concentrations of NGx04 and growth measured by turbidity (OD600). Duplicate values were determined and the 18 h time point was used for logistic regression.

[5] = test system: S. cerevisiae deletion strains; experiment: Single strain growth inhibition of deletion strains (turbidity OD600); format: cell-based; settings: Saccharomyces cerevisiae, 24 h
[6] = test system: C. neoformans ATCC 90113; experiment: C. neoformans growth inhibition (CLSI M27-A3 broth microdilution); format: cell-based; settings: 72 h, triplicate values printed singly; for MIC: Cryptococcus neoformans, ATCC90113, 72 h
Source text: (§4) Sec14p is reported to be essential for virulence as well as for growth in C. neoformans. The S. cerevisiae and C. neoformans proteins show 53% similarity by pair-wise alignment with higher conservation of the residues in the lipid-binding pocket (S2 Fig). Furthermore, three of the four sites identified to be critical for NGx04 sensitivity, are conserved (S2 Fig). In combination with the current high unmet medical need related to Cryptococcus infections we prioritized testing of NGx04 and 18 related ergoline scaffold analogs against this pathogen. Two clinical isolates of C. neoformans (ATCC 36556 and ATCC 90113) were plated in triplicates on increasing drug concentrations and MIC-2 (50% inhibition) and MIC-0 (no visible fungal growth) concentrations were scored after 72 hrs. (Fig 5).
(§5) C. neoformans strains ATCC 36556, a lung isolate, and ATCC 90113, a cerebrospinal fluid isolate, were purchased from ATCC, Manassas, VA (USA). BPY22 was obtained from.
(§6) Antifungal susceptibility testing was conducted according to the Clinical and Laboratory Standards Institute (CLSI) guidelines for broth microdilution assay M27-A3. Testing was performed in RPMI-1640 (HyClone) with 2.05 mM glutamine, phenol red, without bicarbonate and buffered with 0.165 mol/l 3-(N-morpholino) propanesulfonic acid (MOPS). The medium was adjusted to pH 7.0 and sterilized with a 0.2 μm filter. Two endpoints were recorded: MIC-0 (complete inhibition with no visible fungal growth) and MIC-2 (prominent inhibition corresponding to >50% growth reduction).

[7] = test system: C. neoformans ATCC 36556; experiment: as above; format: cell-based; settings: for MIC: Cryptococcus neoformans, ATCC36556, 72 h
Source text: as §4, §5, §6

[8] = test system: S. cerevisiae BY4741; experiment: Phosphatidylinositol (PI) and phosphatidylcholine (PC) competition growth assay; format: cell-based; settings: medium with 200 μM PI or 200 μM PC
Source text: To test this hypothesis, the S. cerevisisae x-ray structure of Sec14p was used to dock the NGx04 ligand into the lipid-binding cavity (Fig 3B). In the resulting docking model, the ester moiety of the ligand formed an H-bond with Y111 while the ergoline amine formed an H-bond with T175. The ergoline moiety also made van der Waals interactions with the residues Y122, Y151, S173, M177 and F212. The calculated docking model was in agreement with the experimental data from the mutagenesis study, as three of the four identified resistance conferring mutations were directly involved in ligand interactions (Y111, Y151 and S173) and the identified V154 residue, although not directly involved in ligand interactions, was only 4.5 Å away from NGx04. The model outlines that a larger residue at this position like Isoleucine would be deleterious for ligand binding. As our docking experiment was biased towards the lipid-binding cavity we aimed at further supporting evidence for NGx04 binding in this protein pocket. To do so we tested if NGx04 would compete for phospholipid-binding in the Sec14p cavity. […]
S. cerevisiae BY4741 (Open Biosystems) was grown in YPD medium in the absence or presence of additional phosphatidylinositol or phosphatidylcholine (200 μM each, Sigma-Aldrich 79401 or P3556, respectively). OD600 values of exponentially growing yeast cultures were recorded with a robotic system. […]

[9] = Artificial membrane permeability assay; format: in vitro ADME; settings: PAMPA, to assess blood brain barrier penetration
Method: Invasion of the central nervous system by C. neoformans is a prerequisite for fungal meningitis. We thus performed artificial membrane permeability assays in order to assess the potential of the cryptococcal active compounds to penetrate the blood brain barrier (S7 Fig). […] High permeability of ergolines is expected, as members of the ergoline class are used as psychedelic narcotics since their discovery.
Metabolic stability was determined as described previously on a fully automated platform, the artificial membrane permeability assays was performed as described previously
Supplementary file pgen.1006374.s007.eps: S7 Fig Physicochemical properties of ergolines. Rat liver microsome and artificial membrane permeability assay. NGx04 and close analogues were tested for metabolic stability (CYP MetCL) and artificial membrane permeability (logPAMPA) in duplicates. Value pairs are color coded and binning is indicated. (EPS) Click here for additional data file.

[10] = 50% inhibition, read-out: ATCC90113 MIC-2
[11] = no visible fungal growth, read-out: ATCC90113 MIC-0
[12] = 50% inhibition, 72 h, triplicate values printed singly, read-out: ATCC36556 MIC-2
[13] = no visible fungal growth, 72 h, triplicate values printed singly, read-out: ATCC36556 MIC-0

## COC(=O)C1CC2c3ccc([N+](=O)[O-])c4c3C(CC2N(C)C1)CN4C(=O)OCC(Cl)(Cl)Cl (stereo not drawn) [NGx04]
[1]
  IC50: 158 µM
[2]; share of cell lines, sensitive defined by Amax <50% and IC50 <30 μM
  cell lines sensitive: one fourth
[2]; share of the tested CCLE cell lines
  cell lines not notably affected / not significantly inhibited: 76%
[3]
  IC50: < 20 µM
[4]; read-out: IC50, SEC14 S173A
  IC50: 318 µM
[4]; read-out: IC50, SEC14 V154I
  IC50: 225 µM
[4]; read-out: IC50, SEC14 WT plasmid
  IC50: 41.1 µM
[5]; read-out: IC50, strain KES1/kes1
  IC50: 18.9 µM
[5]; read-out: IC50, strain SEC14/sec14
  IC50: 6.3 µM
[5]; read-out: IC50, strain ho/ho
  IC50: 11.8 µM
[5]; read-out: IC50, strain itr1/itr1
  IC50: 5.2 µM
[5]; read-out: IC50, strain spo14/spo14
  IC50: 4.4 µM
[5]; read-out: IC50, strain srf1/srf1
  IC50: 3.8 µM
[6]; [10]
  MIC: 25 µg/mL
[6]; [11]
  MIC: > 50 µg/mL
[7]; [12]
  MIC: 25 µg/mL
[7]; [13]
  MIC: 50 µg/mL
[7]; clinical isolates ATCC 36556 and ATCC 90113, tested dose range
  C. neoformans growth inhibition (in words): inhibit C. neoformans growth
[7]; no visible fungal growth, 72 h, triplicate values printed singly
  ATCC36556 MIC-0: > 50 µg/mL
[8]
  effect of excess PI or PC on growth inhibition: alleviate NGx04-mediated growth inhibition

## CC(C)N1CC(C(=O)O)CC2c3cccc4c3C(CC21)CN4C(=O)OC(C)(C)C (stereo not drawn) [NGx13]
[9]
  artificial membrane permeability: exception
[6]; 50% inhibition
  ATCC90113 MIC-2: 50 µg/mL
[6]; [10]
  MIC: > 50 µg/mL
[6]; [11]
  MIC: > 50 µg/mL
[7]; 50% inhibition, 72 h, triplicate values printed singly
  ATCC36556 MIC-2: 13 µg/mL
[7]; [12]
  MIC: 25 µg/mL
[7]; [13]
  MIC: > 50 µg/mL

Reference: article PMC5147771, “High-Resolution Genetics Identifies the Lipid Transfer Protein Sec14p as Target for Antifungal Ergolines” (PLoS Genetics, 2016)
